US12303590B2, “Method of treating osteoarthritis” (ORTHOTROPHIX, INC., priority 2018, dated 2025)
Peptide text beside a SMILES is read from it.

Tests used:
defects in human molar = details: both Phase 2 studies (alveolar bone and dentin); cited from earlier work
[1] = test system: standardized large cartilage defects; details: in vivo; cited from earlier work
[2] = test system: subjects with bilateral patello-femoral knee osteoarthritis; assay: Randomized double-blind placebo-controlled study of TPX-100 in patients with osteoarthritis of the knees (Example 1); format: in vivo, human
Procedure: A multicenter, randomized double-blind, placebo-controlled study was designed to investigate the safety, tolerability, pharmacokinetics, and efficacy of TPX-100 administered in four weekly doses in subjects with bilateral patello-femoral knee osteoarthritis. The study was conducted under an open IND (investigational new drug application) at CDER (Center for Drug Evaluation and Research) of the U.S. FDA (The United States Food and Drug Administration) in compliance with GCP (Good Clinical Practice) and ICH (International Conference on Harmonization of Technical Requirements for Registration of Pharmaceuticals for Human Use) guidelines. Eighteen (18) orthopedic, rheumatologic and family practice centers in the U.S. participated in the study.
The study was divided into Part A and Part B. The Part A was designed to evaluate safety of intra-articular (I.A.) administration of TPX-100 at different dosing levels (20, 50, 100, or 200 mg per injection in sequential cohorts) in the subjects with osteoarthritis of the knees and to select a dose for Part B. Part B was to evaluate safety and efficacy of the selected dose of TPX-100.
Subjects in Part A were enrolled in sequential cohorts and randomized to receive 20, 50, 100 or 200 mg of TPX-100 in one knee (Index Knee) and identical placebo in the contralateral (Control) knee. Subjects, sites and sponsor and central MRI readers were blinded as to treatment assignment. A Safety Review Committee (SRC) evaluated safety in each dosing cohort. The SRC assessed safety and determined whether the next higher dosing regimen could be enrolled. All dosing cohorts in Part A were completed and analyzed with regard to safety prior to dose selection and initiation of Part B.
Part A included four (4) intra-articular (I.A.) injections, one per week, in sequential dosing cohorts of 20, 50, 100 and 200 mg TPX-100 versus placebo. Six (6) subjects were enrolled in 20, 50, and 100 mg cohorts, respectively, and nine (9) subjects were enrolled in the 200 mg cohort.
The 200 mg dose was selected for Part B based on safety review and the approval of the SRC. […] Per the Statistical Analysis Plan, these subjects were combined with the nine subjects in the 200 mg cohort of Part A for the efficacy analysis. In total, data from 93 subjects was analyzed for drug efficacy, each of whom received 4 once-weekly injections of TPX-100, 200 mg/dose, in the Index knee and identical placebo in the contralateral knee, as randomly assigned. […]
If all clinical inclusion and exclusion criteria were met, MRIs of both knees were obtained and evaluated by a central reader to determine the ICRS grade (gICRS) of each knee as the final screening criterion. […]

[3] = test system: human osteoblastic mesenchymal stem cells; details: U.S. Pat. Nos. 7,888,462 and 8,426,558; cited from earlier work
[4] = human, in vivo; cited from earlier work

Compound: CC[C@H](C)[C@H](NC(=O)[C@H](CC(=O)O)NC(=O)[C@H](CC(N)=O)NC(=O)[C@H](CC(=O)O)NC(=O)CNC(=O)[C@H](CCCNC(=N)N)NC(=O)[C@H](CCC(=O)O)NC(=O)[C@H](CCC(N)=O)NC(=O)[C@H](CC(C)C)NC(=O)[C@H](CC(=O)O)NC(=O)[C@@H](N)[C@@H](C)O)C(=O)N[C@@H](CO)C(=O)N1CCC[C@H]1C(=O)N[C@@H](Cc1ccccc1)C(=O)N[C@@H](CO)C(=O)NCC(=O)N[C@@H](CC(=O)O)C(=O)NCC(=O)N[C@@H](CCC(N)=O)C(=O)N1CCC[C@H]1C(=O)N[C@@H](Cc1ccccc1)C(=O)N[C@@H](CCCCN)C(=O)N[C@@H](CC(=O)O)C(N)=O [TPX-100] (H-TDLQERGDNDISPFSGDGQPFKD-NH2; N-terminus assumed)
- Tolerability (defects in human molar): well tolerated in both studies
- Safety and tolerability [1]: safe and well-tolerated
- Dose-limiting toxicities ([2]; Part A, 20, 50, 100 and 200 mg per injection): no dose-limiting toxicities
- Severe adverse events ([2]; human, in vivo): no severe adverse events that were related to TPX-100 treatment
- Treatment-related adverse events ([2]; human, in vivo): mild or moderate, transient
- Safety and tolerability ([2]; intra-articular, Days 0, 7, 14, 21): safe and well tolerated

Compound: PDLLVRGDNDVPPFSGDGQHFMH [rat orthologue, TPX-100 orthologue (Rat/Mouse)]
- Tritium-thymidine incorporation [3]: promote tritium-thymidine incorporation

Compound: N#Cc1c(N(CC(=O)[O-])CC(=O)[O-])sc(C(=O)[O-])c1CC(=O)[O-].[Sr+2].[Sr+2] [strontium ranelate]
- Adverse effect [4]: increase the risk of myocardial infarction
